Results on five compounds are retold here after patent US20250161414A1, “METHOD FOR IMPROVING AUDITORY PERCEPTION USING A VIPR1 INHIBITOR” (ST. JUDE CHILDREN'S RESEARCH HOSPITAL, INC., priority 2022, published 2025).

Assay [1] in a line: Frequency discrimination (auditory) acuity test, pre-pulse inhibition of acoustic startle response (FDT). Format: in vivo, mouse. As to conditions: Gad2Cre, i.p., compared to vehicle. On the procedure: (§1) Mouse Behavioral Tests: Frequency Discrimination (Auditory) Acuity Test. Pitch-discrimination acuity was assessed using pre-pulse inhibition (PPI) of the acoustic startle response via a hardware-computer interface (Kinder Scientific, Chula Vista, CA), according to established methods (Aizenberg et al. (2015) PLOS Biol. 13:e1002308; Blundon et al. (2017) Science 356:1352-1356). In brief, a background pure tone (16.4 kHz) was played at a sound pressure level (SPL) of 70 dB throughout the session, unless otherwise noted. Each session was split into four blocks. Block 1 included a 5-minute acclimation period in which the background tone was played. Block 2 included nine startle trials in which a 120-dB SPL, 20-ms white noise (WN) burst was played. Block 3 included prepulse trials and 10 startle-only trials in a pseudo-random order. Each pre-pulse trial included a 70-dB SPL 80-ms pre-pulse (pure-tone frequency was 0%, 1%, 2%, 4%, 8%, 16%, or 32% lower than that of the background tone), followed by a 120-dB SPL, 20-ms WN startle pulse, and then returned to the background tone after the startle. Every trial in Block 3 was presented 10 times. […] PPI percentage was calculated from Block 3 data as follows: [1−(pre-pulse trial/average startle only trial)]*100. […] FDT values were then analyzed using a t-test, a one-way ANOVA, or a paired t-test, as appropriate. […]

Assay [2] deals with hM4Di-expressing cortical FS interneurons. Briefly: Current-clamp recording from hM4Di-expressing (mCitrine+) cells in acute cortical slices. Format: cell-based, mouse. The settings on record: bath application. On the procedure: Single-Cell Electrophysiology: Auditory Thalamocortical Brain Slices. Acute primary thalamocortical (TC) slices (400-μm thick) containing the left ACx and the left ventral part of the medial geniculate nuclei (MGv) of the thalamus were prepared as previously described (Chun et al. (2014) Science 344:1178-1182; Cruikshank et al. (2002) J. Neurophysiol. 87:361-384). Briefly, mouse brains were removed and placed in cold (4° C.) dissecting medium containing 125 mM choline-Cl, 2.5 mM KCl, 0.4 mM CaCl2, 6 mM MgCl2, 1.25 mM NaH2PO4, 26 mM NaHCO3, and 20 mM glucose (300-310 mosm), equilibrated with 95% O2/5% CO2. […] If recorded in current-clamp mode, pyramidal neurons were additionally verified as regularly spiking. […]
Single-Cell Electrophysiology: Whole-Cell Recording. Whole-cell recordings were made with patch pipettes (3-5 MOhm) using a Multiclamp 700B amplifier, digitized (10 kHz) with a Digidata 1440, and recorded using pCLAMP 10 software (all Molecular Devices, San Jose, CA). […] In voltage-clamp recordings, series resistance, input resistance, and holding current were monitored for stability. […] Input resistance and membrane resting voltage were monitored during recordings. […] Drugs were added to ACSF or locally applied via continuous pressure ejection from a large-diameter pipette placed in the slice near the recorded cell. […]

The nature of assay [3]: Acoustic startle response (ASR). As to conditions: C21 i.p., either genotype (Gad2Cre; WT or Gad2Cre; CD+/-). Format: in vivo, mouse. On the procedure:
as §1

Another assay deals with ACx excitatory neurons. Format: cell-based, mouse.
Another assay relates to ACx interneurons. In words: Whole-cell voltage-clamp recording of inward voltage-gated current threshold (voltage ramp) in ACx interneurons. As to conditions: Gtf2ird1+/- and Gtf2ird1-/- cortical interneurons compared to WT interneurons. Format: cell-based, mouse.
Assay [4] concerns FS interneurons in the ACx. In words: Whole-cell current-clamp recording of FS interneuron excitability (rheobase, current ramp) in auditory thalamocortical slices. Format: cell-based, mouse. As to conditions: for PG 97-269 rheobase shift (difference between rheobase before and after application) / PG 97-269 rheobase shift: FS interneurons.

Where two headings read alike, the source gives them in different places. No end group written: not given here.

As to `c1ccc2c(c1)N=C(N1CCNCC1)c1ccccc1N2` [C21], the “FDT (frequency-discrimination threshold)” value in assay [1] (CD+/- mice expressing hM4Di in ACx interneurons) is “significantly increased”; in assay [1] (WT mice expressing hM4Di in ACx interneurons) it was “not different”. In addition, the “number of action potentials elicited by depolarizing current injections” value in assay [2] is reported as “decreased”. For the same compound, in assay [3], the ASR entry is “not affected”.

For the compound `NC1=N[C@H](O)[C@H]2[C@H]3O[C@]4(O)O[C@@H]([C@@H](O)[C@@]2(N1)[C@@H]4O)[C@]3(O)CO` [tetrodotoxin], in the assay on ACx excitatory neurons, the “difference in sEPSC frequencies between WT and CD+/- ACx excitatory neurons after application” value is “abolished”.

On to “[Acetyl-His^1, D-Phe^2, Lys^15, Arg^16, Leu^17] VIP (1-7)/GRF (8-27) hybrid with C-terminal amidation (HFDAVFTNSYRKVLKRLSARKLLQDIL; HELM PEPTIDE1{[ac].H.[dF].D.A.V.F.T.N.S.Y.R.K.V.L.K.R.L.S.A.R.K.L.L.Q.D.I.L.[am]}$$$$V2.0; SMILES CC[C@H](C)[C@H](NC(=O)[C@H](CC(=O)O)NC(=O)[C@H](CCC(N)=O)NC(=O)[C@H](CC(C)C)NC(=O)[C@H](CC(C)C)NC(=O)[C@H](CCCCN)NC(=O)[C@H](CCCNC(=N)N)NC(=O)[C@H](C)NC(=O)[C@H](CO)NC(=O)[C@H](CC(C)C)NC(=O)[C@H](CCCNC(=N)N)NC(=O)[C@H](CCCCN)NC(=O)[C@H](CC(C)C)NC(=O)[C@@H](NC(=O)[C@H](CCCCN)NC(=O)[C@H](CCCNC(=N)N)NC(=O)[C@H](Cc1ccc(O)cc1)NC(=O)[C@H](CO)NC(=O)[C@H](CC(N)=O)NC(=O)[C@@H](NC(=O)[C@H](Cc1ccccc1)NC(=O)[C@@H](NC(=O)[C@H](C)NC(=O)[C@H](CC(=O)O)NC(=O)[C@@H](Cc1ccccc1)NC(=O)[C@H](Cc1c[nH]cn1)NC(C)=O)C(C)C)[C@@H](C)O)C(C)C)C(=O)N[C@@H](CC(C)C)C(N)=O) [PG 97-269, VIPR1-specific antagonist]”, for which, in the assay on ACx interneurons, the “PG 97-269 threshold shift” value is reported as “significantly reduced”. For the same compound, the “effect on excitability of FS interneurons” value in assay [4] (ACx of Gtf2ird1+/- and Gtf2ird1-/- mice compared to WT mice) is “either a diminished or no effect”; in assay [4] (CD+/- cortex, interneurons already hyperexcitable), “no additional effect”. Also, the “PG 97-269 rheobase shift (difference between rheobase before and after application)” value in assay [4] (CD+/- mice) was “not significantly different from 0”; in assay [4] (WT mice), “significantly less than 0”. Moreover, the “PG 97-269 rheobase shift” value is on record as “did differ from 0” in assay [4] (Gtf2ird1+/- mice) and “did not significantly differ from 0” in assay [4] (Gtf2ird1-/- mice).

With “[Ala^11,22,28]-VIP (HSDAVFTDNYARLRKQMAVKKALNSILA; ends and bridges not checked; UniProt P01282 125-152, looked up, variant T11A Y22A N28A) [VIPR1-specific agonist]”, the “effect of VIPR1-specific agonist on interneurons” value in assay [4] (WT or CD+/- interneurons, brain slices) is on record as “no significant effect”.

For the compound picrotoxin, the “difference in sEPSC frequencies between WT and CD+/- ACx excitatory neurons after application” value in the assay on ACx excitatory neurons (L4 ACx excitatory neurons) is “abolished”.
